Reference: patent US9302999B2, “Substituted triazoles as herbicides” (E. I. DU PONT DE NEMOURS AND COMPANY, priority 2012, dated 2016)

How the values were obtained:
Format in all cases: in vivo
[1] = system: wheat (Triticum aestivum); test: Test A pre-/postemergence: wheat; conditions: for Wheat plant response rating: visual rating on 0 to 100 scale (0 no effect, 100 complete control), approximately ten days
How it was run: (§1)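 Soil medium was loam blended with sand; treatments pre- and postemergence were applied concurrently, postemergence at one- to two-leaf stage. Approximately ten days in greenhouse preceded visual comparison with untreated controls, scored 0 (no effect) to 100 (complete control).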

[2] = system: ducksalad (Heteranthera limosa); test: Test B flooded paddy: ducksalad; conditions: Flood; 250 g ai/ha; applied to paddy water at 2-leaf stage; visually evaluated after 13 to 15 days
How it was run: (§2)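 Flooded-pot test: compound dosed into 3 cm of standing water above soil when plants had two leaves. Visual control ratings (0–100) versus untreated plants after 13–15 d.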

[3] = system: crabgrass, large (large crabgrass, Digitaria sanguinalis); test: Test A pre-/postemergence: crabgrass, large
How it was run: as §1

[4] = system: barnyardgrass (Echinochloa crus-galli); test: Test B flooded paddy: barnyardgrass; conditions: Flood; 250 g ai/ha; applied to paddy water at 2-leaf stage; visually evaluated after 13 to 15 days
How it was run: as §2

[5] = system: pigweed (Amaranthus retroflexus); test: Test A pre-/postemergence: pigweed; conditions: for Pigweed plant response rating: visual rating on 0 to 100 scale (0 no effect, 100 complete control), approximately ten days
How it was run: as §1

[6] = system: barnyardgrass (Echinochloa crus-galli); test: Test A pre-/postemergence: barnyardgrass
How it was run: as §1

[7] = system: morningglory (Ipomoea spp.); test: Test A pre-/postemergence: morningglory; conditions: for Morningglory plant response rating: visual rating on 0 to 100 scale (0 no effect, 100 complete control), approximately ten days
How it was run: as §1

[8] = system: velvetleaf (Abutilon theophrasti); test: Test A pre-/postemergence: velvetleaf; conditions: for Velvetleaf plant response rating: visual rating on 0 to 100 scale (0 no effect, 100 complete control), approximately ten days
How it was run: as §1

corn (Zea mays) = test: Test A pre-/postemergence: corn
How it was run: as §1

rice (Oryza sativa) = test: Test B flooded paddy: rice; conditions: Flood; 250 g ai/ha; applied to paddy water at 2-leaf stage; visually evaluated after 13 to 15 days
How it was run: as §2

[9] = system: sedge, umbrella (small-flower umbrella sedge Cyperus difformis); test: Test B flooded paddy: sedge, umbrella; conditions: Flood; 250 g ai/ha; applied to paddy water at 2-leaf stage; visually evaluated after 13 to 15 days
How it was run: as §2

[10] = system: foxtail, giant (giant foxtail, Setaria faberii); test: Test A pre-/postemergence: foxtail, giant
How it was run: as §1

[11] = Postemergence, 125 g ai/ha, 0 to 100 scale, 0 is no effect, 100 is complete control
[12] = Preemergence, 125 g ai/ha, 0 to 100 scale where 0 is no effect and 100 is complete control
[13] = Preemergence, 500 g ai/ha, 0 to 100 scale (0 no effect, 100 complete control)
[14] = Postemergence, 500 g ai/ha, visual rating on 0 to 100 scale (0 no effect, 100 complete control), approximately ten days

| Compound | Plant response rating, Wheat [1, 11] | Wheat plant response rating ([1]; Postemergence, 500 g ai/ha) | Plant response rating, Wheat [1, 12] | Plant response rating, Wheat [1, 13] | Plant response rating, Ducksalad (0 to 100 scale, 0 is no effect, 100 is complete control) [2] | Crabgrass, Large plant response rating [3, 14] | Plant response rating, Crabgrass, Large [3, 12] | Plant response rating, Crabgrass, Large [3, 13] | Plant response rating, Barnyardgrass (0 to 100 scale, 0 is no effect, 100 is complete control) [4] | Plant response rating, Pigweed [5, 11] | Pigweed plant response rating ([5]; Postemergence, 500 g ai/ha) | Plant response rating, Pigweed [5, 12] | Plant response rating, Pigweed [5, 13] | Barnyardgrass plant response rating [6, 14] | Plant response rating, Barnyardgrass [6, 12] | Plant response rating, Barnyardgrass [6, 13] | Plant response rating, Morningglory [7, 11] | Morningglory plant response rating ([7]; Postemergence, 500 g ai/ha) | Plant response rating, Morningglory [7, 12] | Plant response rating, Morningglory [7, 13] | also measured |
| --- | --- | --- | --- | --- | --- | --- | --- | --- | --- | --- | --- | --- | --- | --- | --- | --- | --- | --- | --- | --- | --- |
| CCc1nn(-c2cccc(C(F)(F)F)c2)nc1Cc1cccc(C(F)(F)F)c1 [Compound 143] | 10 | 40 | 0 | 10 | 0 | 100 | 90 | 100 | 40 | 100 | 100 | 100 | 100 | 50 | 30 | 90 | 50 | 90 | 0 | 0 | Crabgrass, Large plant response rating [3, 11]: 80; Barnyardgrass plant response rating [6, 11]: 20; Plant response rating, Velvetleaf [8, 11]: 40; Velvetleaf plant response rating ([8]; Postemergence, 500 g ai/ha): 80; Plant response rating, Velvetleaf [8, 12]: 0; Plant response rating, Velvetleaf [8, 13]: 20; Corn plant response rating (corn (Zea mays); [11]): 40; Corn plant response rating (corn (Zea mays); [14]): 50; Plant response rating, Corn (corn (Zea mays); [12]): 0; Plant response rating, Corn (corn (Zea mays); [13]): 20; Plant response rating, Rice (0 to 100 scale, 0 is no effect, 100 is complete control) (rice (Oryza sativa)): 30; Plant response rating, Sedge, Umbrella (0 to 100 scale, 0 is no effect, 100 is complete control) [9]: 75; Foxtail, Giant plant response rating [10, 11]: 80; Foxtail, Giant plant response rating [10, 14]: 100; Plant response rating, Foxtail, Giant [10, 12]: 90; Plant response rating, Foxtail, Giant [10, 13]: 100 |
| CCc1nn(-c2ccc(F)cc2)nc1Cc1cccc(C(F)(F)F)c1 [Compound 144] | 0 | 20 | 0 | 0 | 40 | 90 | 50 | 100 | 30 | 100 | 100 | 50 | 100 | 30 | 0 | 30 | 20 | 90 | 0 | 0 | Crabgrass, Large plant response rating [3, 11]: 50; Barnyardgrass plant response rating [6, 11]: 10; Plant response rating, Velvetleaf [8, 11]: 40; Velvetleaf plant response rating ([8]; Postemergence, 500 g ai/ha): 50; Plant response rating, Velvetleaf [8, 12]: 0; Plant response rating, Velvetleaf [8, 13]: 0; Corn plant response rating (corn (Zea mays); [11]): 10; Corn plant response rating (corn (Zea mays); [14]): 30; Plant response rating, Corn (corn (Zea mays); [12]): 0; Plant response rating, Corn (corn (Zea mays); [13]): 0; Plant response rating, Rice (0 to 100 scale, 0 is no effect, 100 is complete control) (rice (Oryza sativa)): 20; Plant response rating, Sedge, Umbrella (0 to 100 scale, 0 is no effect, 100 is complete control) [9]: 80; Foxtail, Giant plant response rating [10, 11]: 30; Foxtail, Giant plant response rating [10, 14]: 90; Plant response rating, Foxtail, Giant [10, 12]: 50; Plant response rating, Foxtail, Giant [10, 13]: 100 |
| CCCc1nn(-c2ccc(F)cc2)nc1Cc1cccc(C(F)(F)F)c1 [Compound 149] | 20 | 30 | 0 | 50 | 60 | 90 | 90 | 100 | 40 | 100 | 100 | 90 | 100 | 80 | 60 | 90 | 90 | 100 | 10 | 30 | Plant response rating, Crabgrass, Large [3, 11]: 80; Plant response rating, Barnyardgrass [6, 11]: 30; Plant response rating, Velvetleaf [8, 11]: 60; Velvetleaf plant response rating ([8]; Postemergence, 500 g ai/ha): 100; Plant response rating, Velvetleaf [8, 12]: 20; Plant response rating, Velvetleaf [8, 13]: 50; Plant response rating, Corn (corn (Zea mays); [11]): 30; Corn plant response rating (corn (Zea mays); [14]): 40; Plant response rating, Corn (corn (Zea mays); [12]): 10; Plant response rating, Corn (corn (Zea mays); [13]): 20; Plant response rating, Rice (0 to 100 scale, 0 is no effect, 100 is complete control) (rice (Oryza sativa)): 30; Plant response rating, Sedge, Umbrella (0 to 100 scale, 0 is no effect, 100 is complete control) [9]: 60; Plant response rating, Foxtail, Giant [10, 11]: 80; Foxtail, Giant plant response rating [10, 14]: 90; Plant response rating, Foxtail, Giant [10, 12]: 90; Plant response rating, Foxtail, Giant [10, 13]: 100 |
| CC(C)c1nn(-c2ccc(F)cc2)nc1Cc1cccc(C(F)(F)F)c1 [Compound 150] | 0 | 0 | 0 | 0 | 0 | 20 | 0 | 0 | 20 | 10 | 50 | 0 | 0 | 0 | 0 | 0 | 0 | 0 | 0 | 0 | Plant response rating, Crabgrass, Large [3, 11]: 0; Plant response rating, Barnyardgrass [6, 11]: 0; Plant response rating, Velvetleaf [8, 11]: 0; Velvetleaf plant response rating ([8]; Postemergence, 500 g ai/ha): 10; Plant response rating, Velvetleaf [8, 12]: 0; Plant response rating, Velvetleaf [8, 13]: 0; Plant response rating, Corn (corn (Zea mays); [11]): 0; Corn plant response rating (corn (Zea mays); [14]): 10; Plant response rating, Corn (corn (Zea mays); [12]): 0; Plant response rating, Corn (corn (Zea mays); [13]): 0; Plant response rating, Rice (0 to 100 scale, 0 is no effect, 100 is complete control) (rice (Oryza sativa)): 0; Plant response rating, Sedge, Umbrella (0 to 100 scale, 0 is no effect, 100 is complete control) [9]: 0; Plant response rating, Foxtail, Giant [10, 11]: 0; Foxtail, Giant plant response rating [10, 14]: 0; Plant response rating, Foxtail, Giant [10, 12]: 0; Plant response rating, Foxtail, Giant [10, 13]: 0 |
| CC(C)c1nn(-c2ccc(F)cc2)nc1Cc1ccnc(C(F)(F)F)c1 [Compound 151] | 0 | 0 | 0 | 0 | 0 | 30 | 0 | 10 | 0 | 60 | 80 | 10 | 60 | 20 | 0 | 0 | 40 | 70 | 0 | 0 | Plant response rating, Crabgrass, Large [3, 11]: 10; Plant response rating, Barnyardgrass [6, 11]: 10; Plant response rating, Velvetleaf [8, 11]: 30; Velvetleaf plant response rating ([8]; Postemergence, 500 g ai/ha): 50; Plant response rating, Velvetleaf [8, 12]: 0; Plant response rating, Velvetleaf [8, 13]: 0; Plant response rating, Corn (corn (Zea mays); [11]): 10; Corn plant response rating (corn (Zea mays); [14]): 20; Plant response rating, Corn (corn (Zea mays); [12]): 0; Plant response rating, Corn (corn (Zea mays); [13]): 0; Plant response rating, Rice (0 to 100 scale, 0 is no effect, 100 is complete control) (rice (Oryza sativa)): 30; Plant response rating, Sedge, Umbrella (0 to 100 scale, 0 is no effect, 100 is complete control) [9]: 0; Plant response rating, Foxtail, Giant [10, 11]: 10; Foxtail, Giant plant response rating [10, 14]: 30; Plant response rating, Foxtail, Giant [10, 12]: 0; Plant response rating, Foxtail, Giant [10, 13]: 20 |
